Measured values: paper PMC11926788, “Effect of SSR504734, a Selective Glycine Transporter Type 1 Inhibitor, on Seizure Thresholds, Neurotransmitter Levels, and Inflammatory Markers in Mice” (ACS Chemical Neuroscience, 2025)
Where a name gives a salt, the structure may show the parent alone.

Experiments:
[1] = test system: i.v. PTZ-induced seizures in mice; assay: Intravenous (i.v.) PTZ seizure threshold test; assay type: in vivo; conditions: VPA 150 mg/kg
Protocol: Mice were individually placed in a plastic restrainer (12 cm long, 3 cm inner diameter), and the lateral vein of each mouse was catheterized using a 27-gauge needle (Sterican, B. Braun Melsungen, Melsungen, Germany). The needle was attached by polyethylene tubing (PE20RW, Plastics One Inc., Roanoke, VA, USA) to a 10 mL plastic syringe containing 1% solution of PTZ in saline (Sigma-Aldrich, St. Louis, MO, USA) and mounted to a syringe pump (model Physio 22, Hugo Sachs Elektronik, Harvard Apparatus GmbH, March-Hugstetten, Germany). Piece of adhesive tape was used to secure the needle. The proper placement of the needle in the vein was verified by the appearance of blood in the tubing. During the test, mice were placed in a transparent box for observation. The PTZ solution was administered to freely moving mice at a constant rate of 0.2 mL/min. The time intervals from the initiation of PTZ infusion to the occurrence of the three following end points, i.e., (1) the first myoclonic twitch, (2) generalized clonic seizure with loss of righting reflex, and (3) forelimb tonus, were recorded. The PTZ infusion was terminated when tonic seizures, which were often fatal for the mice, began. All mice that survived were euthanized immediately. The thresholds were calculated separately for each end point using the following formula: threshold dose of PTZ (mg/kg) = infusion duration (s) × infusion rate (mL/s) × PTZ concentration (mg/mL)/body weight (kg). Seizure threshold was expressed as the amount of PTZ (mg/kg) ± SD (standard deviation) needed to produce the first observable sign of each end point. Each group consisted of 12–15 animals.

[2] = test system: glutamate, GABA, adenosine, glycine concentrations in cortex, hippocampus, brainstem; assay: Determination of neurotransmitters in brain structures (LC-MS/MS, HPLC-FLD); assay type: in vivo, mice
Protocol: Mice were administered with SSR504734 or saline acutely or repeatedly for 14 days and subjected to maximal electroshock seizures 60 min after treatment. Immediately following seizure induction, the animals were decapitated. Brains were removed from the skull and washed with ice-cold 0.9% NaCl. Cortex, hippocampus, and brainstem were isolated by microdissection and collected into Eppendorf tubes. Samples were frozen in liquid nitrogen and kept at −80 °C until the day of analysis.
Adenosine, GABA, and glutamate concentrations in mouse cortex, brainstem, and hippocampus were determined using an LC-MS/MS method. Stock solutions of GABA, adenosine, glutamate, and their internal standards (ISs), i.e., adenosine-13C5, GABA-d6, and glutamate-d5 (Toronto Research Chemicals Inc., Canada), were prepared using methanol for GABA and its IS and deionized water for adenosine, glutamate, and their ISs and stored at 4 °C. The stock solutions of GABA, adenosine, and glutamate were then appropriately diluted with acetonitrile/water 1:1 (v/v) solution to achieve various concentration levels required for the experiments. Brain tissue samples were homogenized using a Bead Ruptor Elite, bead mill homogenizer (Omni International, USA) with 90 μL of deionized water per 10 mg of tissue. The resulting homogenates were further diluted at 1:10 to 1:100 (v/v) ratios (depending on the expected analyte concentration) with acetonitrile/water 1:1 (v/v) solution. […] The supernatants were then placed in autosampler vials.
Analyte separation was performed on an Exion LC AC system (Sciex, USA) coupled with a QTRAP 4500 triple quadrupole MS instrument (Sciex, USA). A 0.2 to 2 μL aliquot of sample was injected via an autosampler maintained at 15 °C into an XBridge HILIC (Waters, Ireland) analytical column (2.1 × 150 mm, 3.5 μm) with the column oven set at 25 °C.
MS detection employed electrospray ionization (ESI) in positive ion mode. According to the results of flow-injection analysis, curtain gas was set at 30 psi, ion spray voltage at 5500 V, and the source temperature at 450 °C, with ion spray gases 1 and 2 at 50 and 40 psi, respectively.
Data acquisition and processing were conducted with Analyst version 1.7 software. The calibration curves were constructed by plotting the ratio of the peak areas of the target analytes to those of their respective ISs against the concentrations of the analytes. These curves were derived using a weighted linear regression analysis method (1/x). Due to the availability of stable isotope-labeled standards and the high endogenous concentrations of adenosine, glutamate, and GABA in the brain tissue, the calibrators were prepared in water.
Glycine concentrations in brain structures were analyzed by using high-performance liquid chromatography with fluorescence detection (HPLC-FLD). A stock solution of glycine (20 mg/mL) was prepared in water and diluted with the same solvent to prepare working standard solutions at the concentration range of 0.2–20 μg/mL. The homogenates were obtained as described above, and they were centrifuged before analysis for 5 min at 10,000 rpm (Eppendorf miniSpin centrifuge). To prepare samples for analysis, 2 μL (for brainstem) or 5 μL (for the remaining structures) of homogenate supernatants was transferred to Eppendorf tubes and diluted with water to 20 μL. […] The reaction mixture was vortexed for 15 s, spinned down to make sure that all the sample is at the bottom of the tube, and incubated for 3 min at room temperature in darkness. The aliquots of 5 μL were injected into the column. […] The EZChrom Elite Client/Server v. 3.2 software was used for data collection and analysis. […] The mobile phase consisted of methanol (solvent A) and 0.05 M phosphate buffer adjusted to pH = 4.5 with phosphoric acid 30% (solvent B) and run in a gradient mode at a flow rate of 1 mL/min.

[3] = acute treatment i.p., nonstimulated (sham) mice

## O=C(NC(c1ccccc1)C1CCCCN1)c1cccc(C(F)(F)F)c1Cl [SSR504734, 2-chloro-N-[(S)-phenyl[(2S)-piperidin-2-yl]methyl]-3-trifluoromethyl benzamide monohydrochloride]
[1]; 14-day treatment i.p.
  effect on thresholds for myoclonic twitch, generalized clonus and forelimb tonus: no significant effect
[1]; single administration i.p.
  effect on thresholds for myoclonic twitch, generalized clonus and forelimb tonus: no significant effect
[2]; 14-day treatment, nonstimulated (sham) and MES-stimulated mice
  glutamate, GABA, adenosine, glycine concentrations in brain structures: No alterations
[2]; acute treatment i.p.
  GABA and glycine concentrations in any of the studied brain regions: did not alter
  adenosine concentrations in cortex and hippocampus: no changes
  glutamate concentration in cortex and hippocampus: No alterations
[2]; acute treatment i.p., mice subjected to the MES test
  glutamate concentration in the brainstem: no statistically significant changes
[2]; [3]
  fold decrease of adenosine concentration in the brainstem: ~2 fold
  glutamate concentration in the brainstem: significant decrease
